The source of these data is patent US10168342B2, “Lipid probes and uses thereof” (THE SCRIPPS RESEARCH INSTITUTE, priority 2015, dated 2019).

Each structure is given as a SMILES string. Where two headings read alike, the source gives them in different places.

Experiment [1] addresses T1, AEA-DA lipid probe targets in Neuro2a cells (Mus musculus, UniProt Q91V01).
T1 sequence (Q91V01 1-487): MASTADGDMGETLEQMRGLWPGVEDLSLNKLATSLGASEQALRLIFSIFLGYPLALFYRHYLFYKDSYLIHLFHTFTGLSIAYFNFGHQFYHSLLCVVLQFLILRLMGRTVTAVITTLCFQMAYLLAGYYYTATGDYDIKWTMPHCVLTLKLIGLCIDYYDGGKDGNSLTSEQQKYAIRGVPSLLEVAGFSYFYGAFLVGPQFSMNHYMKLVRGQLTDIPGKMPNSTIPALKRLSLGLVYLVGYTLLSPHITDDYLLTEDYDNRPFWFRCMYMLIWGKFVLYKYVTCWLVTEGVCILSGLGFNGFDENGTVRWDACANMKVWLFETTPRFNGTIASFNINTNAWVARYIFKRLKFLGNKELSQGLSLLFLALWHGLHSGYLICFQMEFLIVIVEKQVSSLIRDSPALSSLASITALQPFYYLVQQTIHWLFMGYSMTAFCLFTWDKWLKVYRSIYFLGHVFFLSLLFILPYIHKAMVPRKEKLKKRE
Particulars: for SILAC ratio, LPCAT3 (Q6P1A2): Neuro2a cells, AEA-DA probe.

Experiment [2] has as its target T2, AEA-DA lipid probe targets in Neuro2a cells (Mus musculus, UniProt Q80W54).
T2 sequence (Q80W54 1-475): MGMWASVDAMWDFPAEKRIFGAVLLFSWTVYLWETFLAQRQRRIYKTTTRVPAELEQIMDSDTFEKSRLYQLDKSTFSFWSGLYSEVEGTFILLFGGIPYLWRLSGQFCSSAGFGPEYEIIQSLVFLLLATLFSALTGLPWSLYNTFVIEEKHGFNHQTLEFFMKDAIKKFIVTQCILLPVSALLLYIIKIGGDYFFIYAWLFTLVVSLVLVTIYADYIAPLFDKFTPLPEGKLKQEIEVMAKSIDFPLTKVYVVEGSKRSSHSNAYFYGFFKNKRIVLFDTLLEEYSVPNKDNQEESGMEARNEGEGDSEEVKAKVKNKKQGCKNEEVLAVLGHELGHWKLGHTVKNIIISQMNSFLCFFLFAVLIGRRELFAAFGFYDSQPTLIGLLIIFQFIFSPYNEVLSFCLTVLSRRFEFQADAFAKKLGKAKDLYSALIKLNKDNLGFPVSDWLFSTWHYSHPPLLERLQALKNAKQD

Experiment [3] deals with T3, AEA-DA lipid probe targets in Neuro2a cells (Mus musculus, UniProt Q9D379).
T3 sequence (Q9D379 1-455): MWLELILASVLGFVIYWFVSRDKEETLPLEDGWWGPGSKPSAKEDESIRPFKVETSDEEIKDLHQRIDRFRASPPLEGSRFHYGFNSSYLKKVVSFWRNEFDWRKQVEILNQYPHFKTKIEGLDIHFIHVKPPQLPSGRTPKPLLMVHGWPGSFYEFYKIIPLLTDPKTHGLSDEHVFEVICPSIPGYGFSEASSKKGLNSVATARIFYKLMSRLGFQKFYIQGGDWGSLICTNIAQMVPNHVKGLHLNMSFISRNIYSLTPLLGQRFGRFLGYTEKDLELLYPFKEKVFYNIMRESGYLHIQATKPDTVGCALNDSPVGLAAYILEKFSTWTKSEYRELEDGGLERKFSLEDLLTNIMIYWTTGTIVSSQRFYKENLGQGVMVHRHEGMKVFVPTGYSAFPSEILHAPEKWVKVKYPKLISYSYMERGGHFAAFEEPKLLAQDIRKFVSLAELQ

Experiment [4] concerns the target AEA-DA lipid probe targets in Neuro2a cells (Mus musculus, UniProt P06795).
Experiment [5] has as its target AEA-DA lipid probe targets in Neuro2a cells (Mus musculus, UniProt P18242).
In experiment [6] the target is T4, AEA-DA lipid probe targets in Neuro2a cells (Mus musculus, UniProt G5E829).
T4 sequence (G5E829 1-1220): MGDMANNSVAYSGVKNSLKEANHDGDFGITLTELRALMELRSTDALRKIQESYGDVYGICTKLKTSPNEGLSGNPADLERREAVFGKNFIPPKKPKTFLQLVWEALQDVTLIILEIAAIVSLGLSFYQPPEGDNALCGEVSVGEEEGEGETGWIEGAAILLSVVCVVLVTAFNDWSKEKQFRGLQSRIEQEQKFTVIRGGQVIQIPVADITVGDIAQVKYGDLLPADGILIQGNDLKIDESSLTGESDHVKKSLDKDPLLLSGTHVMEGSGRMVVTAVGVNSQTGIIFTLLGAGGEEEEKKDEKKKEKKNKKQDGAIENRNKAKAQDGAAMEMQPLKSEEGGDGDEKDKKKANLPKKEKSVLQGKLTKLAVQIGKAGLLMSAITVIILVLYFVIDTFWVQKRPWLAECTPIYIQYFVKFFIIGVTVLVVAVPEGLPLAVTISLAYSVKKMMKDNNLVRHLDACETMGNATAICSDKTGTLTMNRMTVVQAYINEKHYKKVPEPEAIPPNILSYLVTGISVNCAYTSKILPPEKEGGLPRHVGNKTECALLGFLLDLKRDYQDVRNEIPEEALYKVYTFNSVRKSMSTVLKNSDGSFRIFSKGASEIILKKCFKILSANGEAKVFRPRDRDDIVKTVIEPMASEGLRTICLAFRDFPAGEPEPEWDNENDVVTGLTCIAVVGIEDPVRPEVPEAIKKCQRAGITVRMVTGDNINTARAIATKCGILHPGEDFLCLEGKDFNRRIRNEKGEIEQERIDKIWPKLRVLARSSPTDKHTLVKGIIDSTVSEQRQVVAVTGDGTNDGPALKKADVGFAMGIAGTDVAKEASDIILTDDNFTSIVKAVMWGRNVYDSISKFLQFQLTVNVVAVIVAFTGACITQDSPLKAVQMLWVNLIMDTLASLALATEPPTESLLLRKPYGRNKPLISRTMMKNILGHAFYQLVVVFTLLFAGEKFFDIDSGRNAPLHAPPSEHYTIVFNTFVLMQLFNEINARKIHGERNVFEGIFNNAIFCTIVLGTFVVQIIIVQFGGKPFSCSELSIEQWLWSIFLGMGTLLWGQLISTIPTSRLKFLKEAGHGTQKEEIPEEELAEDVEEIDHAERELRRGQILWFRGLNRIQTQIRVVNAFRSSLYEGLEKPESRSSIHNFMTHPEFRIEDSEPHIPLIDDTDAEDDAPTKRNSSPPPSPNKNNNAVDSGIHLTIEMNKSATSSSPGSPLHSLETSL

AEA-DA lipid probe targets in Neuro2a cells (Mus musculus, UniProt P18242), sequence (P18242 65-410): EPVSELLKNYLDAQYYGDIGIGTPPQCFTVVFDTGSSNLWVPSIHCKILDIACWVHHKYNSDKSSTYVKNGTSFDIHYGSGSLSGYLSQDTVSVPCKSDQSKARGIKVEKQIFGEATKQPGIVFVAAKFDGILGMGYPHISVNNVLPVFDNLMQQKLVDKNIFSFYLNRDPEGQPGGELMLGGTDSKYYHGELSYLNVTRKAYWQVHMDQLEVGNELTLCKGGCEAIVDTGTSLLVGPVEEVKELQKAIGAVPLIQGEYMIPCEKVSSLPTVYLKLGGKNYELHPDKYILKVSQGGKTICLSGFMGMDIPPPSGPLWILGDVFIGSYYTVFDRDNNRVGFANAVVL
AEA-DA lipid probe targets in Neuro2a cells (Mus musculus, UniProt P06795), sequence (P06795 whole entry): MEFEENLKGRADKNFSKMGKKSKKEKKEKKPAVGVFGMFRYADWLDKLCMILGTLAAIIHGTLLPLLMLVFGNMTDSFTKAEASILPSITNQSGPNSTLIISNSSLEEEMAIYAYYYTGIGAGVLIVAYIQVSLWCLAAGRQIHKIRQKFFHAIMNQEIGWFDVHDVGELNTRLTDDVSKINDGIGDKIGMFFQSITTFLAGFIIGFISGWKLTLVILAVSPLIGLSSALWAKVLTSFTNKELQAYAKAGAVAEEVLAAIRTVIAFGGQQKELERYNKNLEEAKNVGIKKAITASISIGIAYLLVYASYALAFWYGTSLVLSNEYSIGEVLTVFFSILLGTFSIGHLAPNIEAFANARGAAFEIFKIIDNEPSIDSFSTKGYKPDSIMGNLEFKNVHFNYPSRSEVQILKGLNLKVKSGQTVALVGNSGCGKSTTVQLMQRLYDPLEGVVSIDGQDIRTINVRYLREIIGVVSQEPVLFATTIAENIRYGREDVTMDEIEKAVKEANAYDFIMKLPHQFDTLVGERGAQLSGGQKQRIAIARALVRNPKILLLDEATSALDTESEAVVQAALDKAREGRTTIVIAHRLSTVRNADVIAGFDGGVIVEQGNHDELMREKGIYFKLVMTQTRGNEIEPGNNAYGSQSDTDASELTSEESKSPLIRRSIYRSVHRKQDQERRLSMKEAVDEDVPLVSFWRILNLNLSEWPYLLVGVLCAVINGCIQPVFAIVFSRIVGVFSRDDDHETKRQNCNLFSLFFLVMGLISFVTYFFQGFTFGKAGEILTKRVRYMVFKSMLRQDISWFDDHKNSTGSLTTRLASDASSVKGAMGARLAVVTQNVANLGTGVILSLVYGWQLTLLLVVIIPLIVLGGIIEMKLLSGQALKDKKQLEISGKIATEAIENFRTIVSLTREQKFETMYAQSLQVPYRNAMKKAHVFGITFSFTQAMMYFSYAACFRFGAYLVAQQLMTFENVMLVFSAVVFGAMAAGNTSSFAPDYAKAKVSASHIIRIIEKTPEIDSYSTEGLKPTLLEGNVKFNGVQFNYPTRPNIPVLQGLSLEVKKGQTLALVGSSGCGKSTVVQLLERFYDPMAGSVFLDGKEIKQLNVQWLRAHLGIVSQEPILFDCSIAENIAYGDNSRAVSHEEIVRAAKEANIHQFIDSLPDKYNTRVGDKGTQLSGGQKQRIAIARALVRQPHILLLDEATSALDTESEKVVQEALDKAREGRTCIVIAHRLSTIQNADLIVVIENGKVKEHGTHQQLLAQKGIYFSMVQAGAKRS

For the compound `C=CCN(C)CCCCCCOc1ccc(C(=O)c2ccc(Br)cc2)c(F)c1` [Ro 48-8071, reference compound], in experiment [1] (competitor 25 μM), the “SILAC ratio, LPCAT3 (Q6P1A2)” value is 1.1 and the “SILAC ratio, Lpcat3” value is 1.1. Also, the “SILAC ratio Zmpste24” value in experiment [2] (competitor 25 μM) came to 1.0. For the same compound, the “SILAC ratio, Ephx1” value in experiment [3] (competitor 25 μM) is 2.4. Moreover, the “SILAC ratio, Abcb1b” value in experiment [4] (competitor 25 μM) is 1.7. In addition, the “SILAC ratio, Ctsd” value in experiment [5] (competitor 25 μM) is recorded as 0.5. Moreover, the “SILAC ratio Atp2b1” value in experiment [6] (competitor 25 μM) was found to be 1.1.
For `CN1CCN(C(=O)c2[nH]c3ccc([N+](=O)[O-])cc3c2-c2ccccc2)CC1` [MJN228, (4-Methylpiperazin-1-yl)(5-nitro-3-phenyl-1H-indol-2-yl)methanone], the “SILAC ratio, Lpcat3” value was 1.2 in experiment [1] (competitor 10 μM), 1.2 in experiment [1] (competitor 25 μM), 1.4 in experiment [1] (competitor 50 μM) and 1.5 in experiment [1] (competitor 100 μM). Besides, the “SILAC ratio Zmpste24” value was 1.1 in experiment [2] (competitor 10 μM), 1.2 in experiment [2] (competitor 25 μM), 1.3 in experiment [2] (competitor 50 μM) and 1.9 in experiment [2] (competitor 100 μM). For the same compound, the “SILAC ratio, Ephx1” value in experiment [3] (competitor 10 μM) is 2.5; in experiment [3] (competitor 25 μM), 3.8; in experiment [3] (competitor 50 μM), 8.2; in experiment [3] (competitor 100 μM), 11.5. Moreover, the “SILAC ratio, Abcb1b” value in experiment [4] (competitor 10 μM) was 2.6; in experiment [4] (competitor 25 μM), 4.0; in experiment [4] (competitor 50 μM) it was 9.4; in experiment [4] (competitor 100 μM), 20.0. Besides, the “SILAC ratio, Ctsd” value in experiment [5] (competitor 10 μM) was 1.2; in experiment [5] (competitor 25 μM) it was 1.2; in experiment [5] (competitor 50 μM), 1.2; in experiment [5] (competitor 100 μM), 1.1. For the same compound, the “SILAC ratio Atp2b1” value came out at 1.1 in experiment [6] (competitor 10 μM), 1.4 in experiment [6] (competitor 25 μM), 1.4 in experiment [6] (competitor 50 μM) and 1.7 in experiment [6] (competitor 100 μM).
On to `CCCCC/C=C\C/C=C\C/C=C\C/C=C\CCCC(=O)NCCO` [AEA, anandamide, reference compound], for which, in experiment [1] (competitor 200 μM), the “SILAC ratio, LPCAT3 (Q6P1A2)” value was 1.4 and the “SILAC ratio, Lpcat3” value was found to be 1.4. For the same compound, the “SILAC ratio Zmpste24” value in experiment [2] (competitor 200 μM) worked out at 1.7. In experiment [3] (competitor 200 μM), the “SILAC ratio, Ephx1” value was 2.1. Moreover, the “SILAC ratio, Abcb1b” value in experiment [4] (competitor 200 μM) stood at 2.3. Also, the “SILAC ratio, Ctsd” value in experiment [5] (competitor 200 μM) was 1.2. Moreover, the “SILAC ratio Atp2b1” value in experiment [6] (competitor 200 μM) amounted to 1.6.
For the compound `CN1CCN(C(=O)c2c(-c3ccccc3)c3cc([N+](=O)[O-])ccc3n2C)CC1` [KML110, (1-Methyl-5-nitro-3-phenyl-1H-indol-2-yl)(4-methylpiperazin-1-yl)methanone], in experiment [1] (competitor 25 μM), the “SILAC ratio, Lpcat3” value turned out to be 1.3. The “SILAC ratio Zmpste24” value in experiment [2] (competitor 25 μM) is reported as 1.4. In addition, the “SILAC ratio, Ephx1” value in experiment [3] (competitor 25 μM) came out at 3.4. In addition, the “SILAC ratio, Abcb1b” value in experiment [4] (competitor 25 μM) came to 5.7. In addition, the “SILAC ratio, Ctsd” value in experiment [5] (competitor 25 μM) was determined as 1.4. Also, the “SILAC ratio Atp2b1” value in experiment [6] (competitor 25 μM) is given as 1.8.
For the compound `O=C(/C=C/c1cccnc1)NCCCCC1CCN(C(=O)c2ccccc2)CC1` [FK-866, reference compound], in experiment [1] (competitor 25 μM), the “SILAC ratio, LPCAT3 (Q6P1A2)” value worked out at 2.3 and the “SILAC ratio, Lpcat3” value came to 2.3. For the same compound, the “SILAC ratio Zmpste24” value in experiment [2] (competitor 25 μM) was 1.1. Moreover, the “SILAC ratio, Ephx1” value in experiment [3] (competitor 25 μM) is on record as 1.4. In addition, the “SILAC ratio, Abcb1b” value in experiment [4] (competitor 25 μM) is 5.4. The “SILAC ratio, Ctsd” value in experiment [5] (competitor 25 μM) is on record as 1.0. Moreover, in experiment [6] (competitor 25 μM), the “SILAC ratio Atp2b1” value stood at 1.2.
